These results are taken from patent US9340530B2, “Preparation and use of bicyclic himbacine derivatives as PAR-1 receptor antagonists” (Merck, Sharp & Dohme Corp., priority 2012, dated 2016).

The target of experiment [1] is thrombin receptor (PAR-1 receptor) (Homo sapiens (Human), UniProt P25116). Kind of experiment: High throughput thrombin receptor radioligand binding assay ([3H]haTRAP, platelet membranes). Conditions: [3H]haTRAP binding to platelet membranes. The method, then:
The following binding assays were used to determine the ability of the inventive compounds to inhibit the PAR-1 receptor.
A(pF-F)R(ChA)(hR)(I2—Y)—NH2 (1.03 mg) and 10% Pd/C (5.07 mg) were suspended in DMF (250 μl) and diisopropylethylamine (10 μL). The vessel was attached to the tritium line, frozen in liquid nitrogen and evacuated. Tritium gas (342 mCi) was then added to the flask, which was stirred at room temperature for 2 hours. At the completion of the reaction, the excess tritium was removed and the reacted peptide solution was diluted with DMF (0.5 ml) and filtered to remove the catalyst. The collected DMF solution of the crude peptide was diluted with water and freeze dried to remove the labile tritium. The solid peptide was redissolved in water and the freeze drying process repeated. The tritiated peptide ([^3H]haTRAP) was dissolved in 0.5 ml of 0.1% aqueous TFA and purified by HPLC using the following conditions: column, Vydac™ C18, 25 cm×9.4 mm I.D.; mobile phase, (A) 0.1% TFA in water, (B) 0.1% TFA in CH3CN; gradient, (A/B) from 100/0 to 40/60 over 30 min; flow rate, 5 ml/min; detection, UV at 215 nm. The radiochemical purity of [^3H]haTRAP was 99% as analyzed by HPLC. A batch of 14.9 mCi at a specific activity of 18.4 Ci/mmol was obtained.
Platelet membranes were prepared using a modification of the method of Natarajan et al. (Natarajan et al, Int. J. Peptide Protein Res. 45:145-151 (1995)) from 20 units of platelet concentrates obtained from the North Jersey Blood Center (East Orange, N.J.) within 48 hours of collection. All steps were carried out at 4° C. under approved biohazard safety conditions. Platelets were centrifuged at 100×g for 20 minutes at 4° C. to remove red cells. The supernatants were decanted and centrifuged at 3000×g for 15 minutes to pellet platelets. Platelets were re-suspended in 10 mM Tris-HCl, pH 7.5, 150 mM NaCl, 5 mM EDTA, to a total volume of 200 ml and centrifuged at 4400×G for 10 minutes. This step was repeated two additional times. […] Protein concentration was determined by a Lowry assay (Lowry et al., J. Biol. Chem., 193:265-275 (1951)). […]

The target of experiment [2] is PAR1 (Homo sapiens (Human), UniProt P25116). Put plainly: Par-1 FLIPR assay (calcium, HEK 293 cells, PAR1 activating peptide). The experiment is classed as cell-based. Conditions: PAR1 selective receptor-activating peptide at 80% activation. The protocol:
HEK 293 Cells were grown in media containing DMEM, 10% FBS pen/strep/L-Glutamine and non-essential amino acids. The cells were plated in 384-well PDL coated plates at 12000 cells/well and incubated overnight at 37° C./5% CO2. Media was then removed from the cells, which were then incubated with buffer (Hank's containing HEPES and Chaps) containing FLIPR calcium-5 dye, made with buffer containing probenecid, for 60 minutes at 37° C. Varying concentrations of compound in a final concentration of 5% DMSO were then added to the cells and incubated at 25° C. for 30 minutes. […] The FLIPR reads at an excitation wavelength of 480 nm and an emission wavelength of 535 nm, and performs 60 scans over a 1-2 min reading time. The data were analyzed by taking the peak signal over a portion of the range of the 60 scans and dividing this signal by the minimum signal for that same range.

PAR1, sequence (P25116 22-425): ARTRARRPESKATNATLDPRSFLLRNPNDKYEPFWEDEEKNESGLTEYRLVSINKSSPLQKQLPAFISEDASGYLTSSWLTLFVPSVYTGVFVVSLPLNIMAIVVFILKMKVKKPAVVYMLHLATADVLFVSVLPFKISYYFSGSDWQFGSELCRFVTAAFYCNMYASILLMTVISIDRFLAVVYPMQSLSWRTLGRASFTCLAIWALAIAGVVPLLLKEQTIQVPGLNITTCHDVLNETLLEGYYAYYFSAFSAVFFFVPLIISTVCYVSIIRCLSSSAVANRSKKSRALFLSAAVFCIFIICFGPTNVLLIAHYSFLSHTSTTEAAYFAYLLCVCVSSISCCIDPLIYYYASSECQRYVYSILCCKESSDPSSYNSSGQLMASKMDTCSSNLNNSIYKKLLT
thrombin receptor (PAR-1 receptor), sequence (P25116 22-425): as above

The term Ki denotes a measure of affinity in units of concentration, obtained from inhibition or displacement. High values mean lower affinity, low ones higher affinity. By IC50 is commonly meant the point on the concentration scale where inhibition reaches its midpoint. With `C[C@H]1OC(=O)[C@]2(O)CC(F)(F)[C@@H](C)[C@H](/C=C/c3ccc(-c4cccc(F)c4)cn3)[C@H]12` [Example 10], the affinity in experiment [1] corresponds to a Ki of 3 nM. Further, in experiment [2], the IC50 amounted to 8.1 nM.

Take `Cc1cn([C@@]23CC(F)(F)[C@@H](C)[C@H](/C=C/c4ccc(-c5ccccc5C#N)cn4)[C@@H]2[C@@H](C)OC3=O)nn1` [Example 32]: the IC50 in experiment [2] came out at 1.4 nM. For the compound `C[C@H]1OC(=O)[C@]2(C(=O)NCCO)CC(F)(F)[C@@H](C)[C@H](/C=C/c3ccc(-c4cccc(F)c4)cn3)[C@H]12` [Example 13], the Ki in experiment [1] stood at 3 nM. Moreover, the IC50 in experiment [2] was 17 nM. As for `C[C@H]1OC(=O)[C@]2(C3(O)CNC3)CC(F)(F)[C@@H](C)[C@H](/C=C/c3ccc(-c4ccccc4C#N)cn3)[C@H]12` [Example 24], the concentration for half-maximal inhibition (IC50) in experiment [2] came out at 40.7 nM. Still for that read-out and setting: then `C[C@H]1OC(=O)[C@]2(O)CC(F)(F)[C@@H](C)[C@H](/C=C/c3ccc(-c4ccccc4C#N)cn3)[C@H]12` [Example 8], with 2 nM. Regarding `CC1[C@H](/C=C/c2ccc(-c3ccccc3C#N)cn2)C2[C@@H](C)OC(=O)[C@@]2(NC(=O)c2ccn(C)n2)CC1(F)F` (stereo partly shown) [Example 67], in experiment [2], the IC50 amounted to 3.7 nM. Take `COC(=O)[C@@]12CC(F)(F)[C@@H](C)[C@H](/C=C/c3ccc(-c4cccc(F)c4)cn3)[C@@H]1[C@@H](C)OC2=O` [Example 11]: the IC50 in experiment [2] was determined as 3.4 nM. Take `C[C@H]1OC(=O)[C@]2(NCC3CC3)CC(F)(F)[C@@H](C)[C@H](/C=C/c3ccc(-c4ccccc4C#N)cn3)[C@H]12` [Example 50]: in experiment [2], the IC50 worked out at 2.7 nM.

On to `C[C@H]1OC(=O)[C@]2(NC3CCC3)CC(F)(F)[C@@H](C)[C@H](/C=C/c3ccc(-c4ccccc4C#N)cn3)[C@H]12` [Example 36], for which the IC50 in experiment [2] was found to be 4.1 nM.

As to `C[C@H]1OC(=O)[C@]2(NC3COC3)CC(F)(F)[C@@H](C)[C@H](/C=C/c3ccc(-c4ccccc4C#N)cn3)[C@H]12` [Example 49], the IC50 in experiment [2] was 10.4 nM. Regarding `C[C@H]1OC(=O)[C@]2(C(O)c3ccccn3)CC(F)(F)[C@@H](C)[C@H](/C=C/c3ccc(-c4ccccc4C#N)cn3)[C@H]12` (stereo partly shown) [Example 19], the IC50 in experiment [2] worked out at 3 nM. Take `CC1[C@H](/C=C/c2ccc(-c3ccccc3C#N)cn2)C2[C@@H](C)OC(=O)[C@]2(C(O)c2cocn2)CC1(F)F` (stereo partly shown) [Example 22a]: the IC50 in experiment [2] came to 1.9 nM. As to `C[C@H]1OC(=O)[C@]2(Cc3ncon3)CC(F)(F)[C@@H](C)[C@H](/C=C/c3ccc(-c4ccccc4Cl)cn3)[C@H]12` [Example 26], the IC50 in experiment [2] is 1.2 nM. With `CC1[C@H](/C=C/c2ccc(-c3ccccc3C#N)cn2)C2[C@@H](C)OC(=O)[C@]2(NCc2cocn2)CC1(F)F` (stereo partly shown) [Example 42], the 50% inhibitory concentration (IC50) in experiment [2] worked out at 2.4 nM. For the compound `Cc1nnnn1[C@@]12CC(F)(F)[C@@H](C)[C@H](/C=C/c3ccc(-c4ccccc4C#N)cn3)[C@@H]1[C@@H](C)OC2=O` [Example 34], the concentration for half-maximal inhibition (IC50) in experiment [2] is 6.4 nM. On the same count and under the same terms, next, `C[C@H]1OC(=O)[C@]2(NC(=O)NC3CCC3)CC(F)(F)[C@@H](C)[C@H](/C=C/c3ccc(-c4ccccc4C#N)cn3)[C@H]12` [Example 54]: 7.1 nM; `C[C@H]1OC(=O)[C@@H]2CC(F)(F)[C@@H](C)[C@H](/C=C/c3ccc(-c4ccccc4C#N)cn3)[C@H]12` [Example 1]: 1.6 nM. `C[C@H]1OC(=O)[C@]2(CC#N)CC(F)(F)[C@@H](C)[C@H](/C=C/c3ccc(-c4ccccc4Cl)cn3)[C@H]12` [Example 25]: in experiment [2], the half-inhibitory concentration (IC50) is 3.3 nM. With `CO[C@@]12CC(F)(F)[C@@H](C)[C@H](/C=C/c3ccc(-c4ccccc4C#N)cn3)[C@@H]1[C@@H](C)OC2=O` [Example 72], the half-maximal inhibitory concentration (IC50) in experiment [2] was 2.5 nM. Consider `Cc1cccc(-c2ccc(/C=C/[C@@H]3[C@@H]4[C@@H](C)OC(=O)[C@]4(N)CC(F)(F)[C@H]3C)nc2)c1C#N` [Example 73], for which the half-inhibitory concentration (IC50) in experiment [2] came to 3.3 nM. Same read-out and setting: next, `C[C@H]1OC(=O)[C@]2(NCC(O)CCl)CC(F)(F)[C@@H](C)[C@H](/C=C/c3ccc(-c4ccccc4C#N)cn3)[C@H]12` (stereo partly shown) [Example 52]: 4.3 nM. Turning to `C[C@H]1OC(=O)C2CC(F)(F)[C@@H](C)[C@H](/C=C/c3ccc(-c4cccc(F)c4)cn3)C21` (stereo partly shown) [Example 2], the Ki in experiment [1] turned out to be 3 nM. Further, the IC50 in experiment [2] was determined as 5.01 nM. `C[C@H]1OC(=O)[C@]2(NC(=O)c3ccccc3)CC(F)(F)[C@@H](C)[C@H](/C=C/c3ccc(-c4ccccc4C#N)cn3)[C@H]12` [Example 63]: the IC50 in experiment [2] was 2.3 nM. Still for that read-out and setting: next, `C[C@H]1OC(=O)[C@]2(NCc3cscn3)CC(F)(F)[C@@H](C)[C@H](/C=C/c3ccc(-c4ccccc4C#N)cn3)[C@H]12` [Example 44]: 1.6 nM.

`C[C@H]1OC(=O)[C@]2(NC(=O)c3ccc(C#N)cc3)CC(F)(F)[C@@H](C)[C@H](/C=C/c3ccc(-c4ccccc4C#N)cn3)[C@H]12` [Example 64]: the 50% inhibitory concentration (IC50) in experiment [2] came out at 2.9 nM.
